{"source": "patent US20070191227A1", "about": "“Use of basic amino acids in copper-containing fungicidal formulations” (priority 2003, published 2007)", "tested_on": "Septoria tritici", "experiment": "Growth assay with Septoria tritici as indicator fungus (photometric)", "type": "cell-based", "conditions": "Zymoseptoria tritici; active ingredient concentration 1 ppm, individual active ingredient", "experimental": "Efficacy of Formulations According to the Invention Comprising Copper and a Further Fungicidal Active Ingredient Against Septoria tritici.\nA growth assay was carried out with Septoria tritici as indicator fungus. The fungal growth was measured photometrically by the increase in absorption or light scattering as a function of mycelium density. The data were converted into percent growth inhibition, the absorption of the untreated controls being defined as 0% inhibition and that of a killed spore suspension as reference as 100% inhibition.\nThe expected efficacies of combinations of active ingredients were determined using Colby's formula (Colby, S. R. “Calculating synergistic and antagonistic responses of herbicide combinations”, Weeds, 15, pp. 20-22, 1967) and compared with the observed efficacies.\nColby's formula: E=x+y−x·y/100 • E expected efficacy, expressed in % of the untreated control, when using the mixture of the active ingredients A and B at the concentrations a and b • x efficacy, expressed in % of the untreated control, when using the active ingredient A at the concentration a\ny efficacy, expressed in % of the untreated control, when using the active ingredient B at the concentration b", "data": [{"compound": "COC(=O)N(OC)c1ccccc1COc1ccn(-c2ccc(Cl)cc2)n1", "note": "[II, Pyraclostrobin]", "values": [{"measurement": "inhibition at 1 ppm", "result": 73, "unit": "%"}]}]}
